In patent US20240058422A1, “GLUCAGON-LIKE PEPTIDE-1 RECEPTOR ANTAGONISTS” (INDIANA UNIVERSITY RESEARCH AND TECHNOLOGY CORPORATION, priority 2022, published 2024):
Converted amounts (≈) assume the structure as drawn. Non-standard residues stand in square brackets, D forms with d. Residues, ends and D or L forms follow the SMILES beside them. *: point of attachment. C18 diacid = O=C(O)CCCCCCCCCCCCCCCCC(=O)*; Palmitoyl = CCCCCCCCCCCCCCCC(=O)*; pGlu = O=C1CC[C@@H](C(=O)O)N1; Aib = CC(C)(N)C(=O)O

Experiments:
GLP-1R [1] = molecular target: T1, GLP-1R (Homo sapiens, UniProt P43220); experiment: IC50 nM; design: host or cells: HEK 293
Method: Table printed on a drawing sheet, Fig. 10
Head of the field: IC50 nM
Where the first naming reader finds the target: description_of_the_figure: as measured in an in vitro assay using GLP-1R over-expressing 293 cells
Target sequence in this assay (P43220 24-463 limits assumed): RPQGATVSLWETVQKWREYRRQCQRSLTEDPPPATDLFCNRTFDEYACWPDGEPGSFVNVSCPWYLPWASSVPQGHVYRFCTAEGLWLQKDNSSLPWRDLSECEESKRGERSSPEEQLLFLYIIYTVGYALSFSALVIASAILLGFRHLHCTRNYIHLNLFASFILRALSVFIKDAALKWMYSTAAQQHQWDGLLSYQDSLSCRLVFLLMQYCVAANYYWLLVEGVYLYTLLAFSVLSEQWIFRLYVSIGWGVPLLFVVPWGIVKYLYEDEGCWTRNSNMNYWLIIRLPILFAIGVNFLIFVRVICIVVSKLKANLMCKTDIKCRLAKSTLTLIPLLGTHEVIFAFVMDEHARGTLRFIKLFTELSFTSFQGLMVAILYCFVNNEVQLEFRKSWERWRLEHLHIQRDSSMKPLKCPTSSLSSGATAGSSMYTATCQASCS

GLP-1R [2] = molecular target: T1, GLP-1R; experiment: GLP-1 receptor-mediated cAMP induction, luciferase reporter gene antagonism assay; format: cell-based; design: host or cells: HEK 293; details: Table 4; Aib variants of 9-40am Jant4 K40[C16]; antagonism of 0.05 nM GLP-1, HEK 293 cells; read-out: Bioactivity IC50
Summary of the method: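 HEK 293 cells cotransfected with human GLP-1 receptor and CRE-luciferase were serum-deprived 16 h, then given serial peptide dilutions followed by 0.05 nM GLP-1 and incubated 5 h at 37° C.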
Target sequence in this assay (P43220 24-463): as the sequence (P43220 24-463 limits assumed) above

Solubility in buffer = details: PBS, pH 7.7, Solubility [mg/mL] PBS pH7.7, Table 4; PBS pH7.7
physchem = details: pH 7.7, Solubility [mg/mL] 80 mM AmBicarb pH7.7

| Compound | IC50 (GLP-1R [1]) [nM] | IC50 (GLP-1R [2]) [nM] | solubility (Solubility in buffer) [µg/mL] | solubility (physchem) [µg/mL] |
| --- | --- | --- | --- | --- |
| CC[C@H](C)[C@H](NC(=O)[C@H](Cc1ccccc1)NC(=O)[C@H](CCC(=O)O)NC(=O)[C@H](CCCNC(=N)N)NC(=O)[C@@H](NC(=O)[C@H](C)NC(=O)[C@H](CCC(N)=O)NC(=O)[C@H](CCC(=O)O)NC(=O)[C@H](CCC(=O)O)NC(=O)[C@H](CC(C)C)NC(=O)[C@H](Cc1ccc(O)cc1)NC(=O)[C@H](CO)NC(=O)[C@H](CO)NC(=O)[C@@H](NC(=O)[C@H](CC(=O)O)NC(=O)CNC(=O)[C@H](CCCCNC(=O)CCCCCCCCCCCCCCCCC(=O)O)NC(=O)[C@@H]1CCC(=O)N1)C(C)C)C(C)C)C(=O)N[C@@H](C)C(=O)N[C@@H](Cc1c[nH]c2ccccc12)C(=O)N[C@@H](CC(C)C)C(=O)N[C@H](C(=O)N[C@@H](CCCNC(=N)N)C(=O)NCC(=O)NCC(=O)N1CCC[C@H]1C(=O)N[C@@H](CO)C(=O)N[C@@H](CO)C(=O)NCC(=O)N[C@@H](C)C(=O)N1CCC[C@H]1C(=O)N1CCC[C@H]1C(=O)N1CCC[C@H]1C(=O)N[C@@H](CO)C(=O)O)C(C)C [compound 1417] ([pGlu]K(C18 diacid)GDVSSYLEEQAVREFIAWLVRGGPSSGAPPPS-OH) | 80 | – | – | – |
| CC[C@H](C)[C@H](NC(=O)[C@H](Cc1ccccc1)NC(=O)[C@H](CCC(=O)O)NC(=O)[C@H](CCCNC(=N)N)NC(=O)[C@@H](NC(=O)[C@H](C)NC(=O)[C@H](CCC(N)=O)NC(=O)[C@H](CCC(=O)O)NC(=O)[C@H](CCC(=O)O)NC(=O)[C@H](CC(C)C)NC(=O)[C@H](Cc1ccc(O)cc1)NC(=O)[C@H](CO)NC(=O)[C@H](CO)NC(=O)[C@@H](NC(=O)[C@H](CC(=O)O)NC(=O)CCCCCCCCCCCCCCCCC(=O)O)C(C)C)C(C)C)C(=O)N[C@@H](C)C(=O)N[C@@H](Cc1c[nH]c2ccccc12)C(=O)N[C@@H](CC(C)C)C(=O)N[C@H](C(=O)N[C@@H](CCCNC(=N)N)C(=O)NCC(=O)NCC(=O)N1CCC[C@H]1C(=O)N[C@@H](CO)C(=O)N[C@@H](CO)C(=O)NCC(=O)N[C@@H](C)C(=O)N1CCC[C@H]1C(=O)N1CCC[C@H]1C(=O)N1CCC[C@H]1C(=O)N[C@@H](CO)C(=O)O)C(C)C [compound 1416] ({C18 diacid}-DVSSYLEEQAVREFIAWLVRGGPSSGAPPPS-OH) | 36 | – | – | – |
| CCCCCCCCCCCCCCCC(=O)NCCCC[C@H](NC(=O)[C@H](CO)NC(=O)[C@@H]1CCCN1C(=O)[C@@H]1CCCN1C(=O)[C@@H]1CCCN1C(=O)[C@H](C)NC(=O)CNC(=O)[C@H](CO)NC(=O)[C@H](CO)NC(=O)[C@@H]1CCCN1C(=O)CNC(=O)CNC(=O)[C@H](CCCCN)NC(=O)[C@@H](NC(=O)C(C)(C)NC(=O)[C@H](Cc1c[nH]c2ccccc12)NC(=O)[C@H](C)NC(=O)[C@@H](NC(=O)[C@H](Cc1ccccc1)NC(=O)[C@H](CCC(=O)O)NC(=O)[C@H](CCCNC(=N)N)NC(=O)[C@@H](NC(=O)[C@H](C)NC(=O)[C@H](CCC(N)=O)NC(=O)[C@H](CCC(=O)O)NC(=O)[C@H](CCC(=O)O)NC(=O)[C@H](CC(C)C)NC(=O)[C@H](Cc1ccc(O)cc1)NC(=O)[C@H](CO)NC(=O)[C@H](CO)NC(=O)[C@@H](NC(=O)[C@@H](N)CC(=O)O)C(C)C)C(C)C)[C@@H](C)CC)C(C)C)C(N)=O [compound 44] (H-DVSSYLEEQAVREFIAW[Aib]VKGGPSSGAPPPSK(Palmitoyl)-NH2) | – | 8 | 100 (≈ 27.7 µM) | 19000 (≈ 5260 µM) |
